{"source": "patent US20090285893A1", "about": "“TREATMENT OF HEART FAILURE IN WOMEN” (The Procter & Gamble Company, priority 2008, published 2009)", "type_in_all_cases": "in vivo, human", "key": {"[1]": {"test_system": "post-menopausal women with heart failure", "assay": "muscle isometric strength, maximal voluntary contraction (MVC)", "protocol": "(§1) Thirty-two (32) patients enrolled in the trial. […] Testosterone was administered to the patients as Intrinsa, which is available in Europe.\n(§2) The clinical trial design involved: (A) evaluation of inclusion/exclusion criteria and study agreement; (B) visit (blood pressure, heart rate and NYHA classification); (C) six minute walking test, endothelial function, ergospirometry (when possible), muscle strength (isometric and isokinetic) and blood samples; and then (D) randomization to testosterone or placebo. The following follow-ups were conducted: six weeks (B); twelve weeks (B+C); 18 weeks (B); and 24 weeks (B+C).\nIsometric strength was the highest force developed by patients in three, 5-second maximal voluntary contractions (“MVC”) separated by 1 minute of rest. The knee angle was fixed at 80° (full extension considered 0°). Results are reported at Tables 9-10 and FIGS. 8-10."}, "[2]": {"test_system": "post-menopausal women with heart failure", "assay": "six minute walking test (6MWT), exercise tolerance", "settings": "for 6MWT distance walked: 300 mcg/day transdermal patch", "protocol": "as §1, §2\nIn the 6MWT, each patient started by standing at a known beginning location point. Each patient then walked as much as possible within a 6-minute timeframe. At the end of the 6-minute timeframe, the ending location of each patient was identified. The distance each patient walked was calculated by measuring (in meters) the distance between the beginning and end points for each patient."}, "[3]": {"test_system": "post-menopausal women with heart failure", "assay": "NYHA classification improvement", "protocol": "as §1, §2\nNYHA Classification was determined for each individual at three months and at six months of treatment."}, "[4]": {"test_system": "post-menopausal women with heart failure", "assay": "muscle isokinetic strength, peak torque", "protocol": "as §1, §2\nIsokinetic strength was assessed by evaluating the highest peak torque achieved in a five maximal repetition test of concentric knee extension/flexion performed at 90 degree/sec. The range of motion was 50°. Results are reported at Tables 11-12 and FIGS. 11-13."}, "[5]": {"test_system": "post-menopausal women with heart failure", "assay": "drop-outs and adverse events during the clinical study", "settings": "testosterone group of 20 patients", "protocol": "as §1\nDuring the clinical study, two patients dropped out of the testosterone group, and one patient dropped out of the placebo group. […] The patient who dropped out of the placebo group was a no-show at the 6-week meeting and was reported to have stopped the treatment. Of the testosterone group, six patients referred mild skin irritation at the patch site and continued therapy. Of the placebo group, two patients referred mild skin irritation at the patch site and continued therapy. […] These two patients continued the testosterone treatment. Two patients in the placebo group had worsening heart failure that required hospital admission (one patient had one episode of worsening heart failure; the other patient had two episodes of worsening heart failure). These two patients continued with the patch."}, "[6]": {"test_system": "post-menopausal women with heart failure", "assay": "maximal oxygen consumption (MVO2) by ergospirometry", "protocol": "Thirty-two (32) patients enrolled in the trial.\nThe following follow-ups were conducted: six weeks (B); twelve weeks (B+C); 18 weeks (B); and 24 weeks (B+C).\nMaximal oxygen consumption (“MVO2;” also “VO2 max”) is the maximum volume of oxygen that the body can consume during intense, whole-body exercise, while breathing air at sea level. This volume is expressed as a rate, which is in ml/kg/min. As oxygen consumption is linearly related to energy expenditure, the measurement of oxygen consumption is an indirect measurement of an individual's maximal capacity to do work aerobically."}, "[7]": {"test_system": "post-menopausal women with heart failure", "assay": "high-density lipoprotein (HDL) measurement", "protocol": "as §1, §2\nHigh-density lipoprotein (“HDL”) was measured."}}}
{"smiles": "C[C@]12CC[C@H]3[C@@H](CCC4=CC(=O)CC[C@@]43C)[C@@H]1CC[C@@H]2O", "note": "[Testosterone, testosterone]", "values": [{"measurement": "MVC percent change from baseline", "setting": "[1]; 3 months", "result": 37.8, "unit": "% change"}, {"measurement": "isometric strength, maximal voluntary contraction (MVC)", "setting": "[1]; 3 months", "result": 89.4, "unit": "N"}, {"measurement": "MVC percent change from baseline", "setting": "[1]; 6 months", "result": 47.6, "unit": "% change"}, {"measurement": "isometric strength, maximal voluntary contraction (MVC)", "setting": "[1]; 6 months", "result": 95.7, "unit": "N"}, {"measurement": "isometric strength, maximal voluntary contraction (MVC)", "setting": "[1]; baseline, testosterone group", "result": 64.85, "unit": "N"}, {"measurement": "6MWT percent change from baseline", "setting": "[2]; 3 months", "result": 35.7, "unit": "% change"}, {"measurement": "6MWT change in distance walked", "setting": "[2]; 3 months vs baseline", "result": "93 Δ m"}, {"measurement": "6MWT distance walked", "setting": "[2]; 3 months", "result": 353, "unit": "m"}, {"measurement": "6MWT percent change from baseline", "setting": "[2]; 6 months", "result": 39.2, "unit": "% change"}, {"measurement": "6MWT change in distance walked", "setting": "[2]; 6 months vs baseline", "result": "102 Δ m"}, {"measurement": "6MWT distance walked", "setting": "[2]; 6 months", "result": 362, "unit": "m"}, {"measurement": "6MWT distance walked", "setting": "[2]; baseline, testosterone group", "result": 260, "unit": "m"}, {"measurement": "Percent of patients with improvement of NYHA Class and/or improvement of >15% 6 MWT (% Response)", "setting": "[3]; 6 months", "result": 80, "unit": "%"}, {"measurement": "Percent change in NYHA Class of patients: NYHA 0", "setting": "[3]; during 6 months of treatment", "result": 50, "unit": "%"}, {"measurement": "Percent change in NYHA Class of patients: NYHA + 1", "setting": "[3]; during 6 months of treatment", "result": 11, "unit": "%"}, {"measurement": "Percent change in NYHA Class of patients: NYHA − 1", "setting": "[3]; during 6 months of treatment", "result": 38.8, "unit": "%"}, {"measurement": "isokinetic strength, peak torque", "setting": "[4]; 3 months", "result": 58.85, "unit": "N/m"}, {"measurement": "peak torque percent change from baseline", "setting": "[4]; 3 months", "result": 42.32, "unit": "% change"}, {"measurement": "isokinetic strength, peak torque", "setting": "[4]; 6 months", "result": 63.82, "unit": "N/m"}, {"measurement": "peak torque percent change from baseline", "setting": "[4]; 6 months", "result": 54.34, "unit": "% change"}, {"measurement": "isokinetic strength, peak torque", "setting": "[4]; baseline, testosterone group", "result": 41.35, "unit": "N/m"}, {"measurement": "patients who dropped out", "setting": "[5]", "result": "two"}, {"measurement": "patients with generalized prurigo (without lesions on the skin), discontinued treatment after 3 weeks", "setting": "[5]", "result": "one"}, {"measurement": "patients with mild skin irritation at the patch site, continued therapy", "setting": "[5]", "result": "six"}, {"measurement": "patients with one episode of worsening of heart failure requiring hospital admission", "setting": "[5]; during the follow-up", "result": "Two"}, {"measurement": "MVO2 percent change from baseline", "setting": "[6]; 3 months", "result": 21, "unit": "% change"}, {"measurement": "MVO2 percent change from baseline", "setting": "[6]; 6 months", "result": 28, "unit": "% change"}, {"measurement": "MVO2 percent change from baseline", "setting": "[6]; 6 months, listed as testosterone", "result": "over 25 % change"}, {"measurement": "maximal oxygen consumption peak (MVO2)", "setting": "[6]; baseline, testosterone group", "result": 10.54, "unit": "mL/min/kg"}, {"measurement": "HDL Percent Changes", "setting": "[7]; 3 months", "result": 19, "unit": "%"}, {"measurement": "HDL level", "setting": "[7]; 3 months", "result": 43.24, "unit": "mg/dL"}, {"measurement": "HDL Percent Changes", "setting": "[7]; 6 months", "result": 25, "unit": "%"}, {"measurement": "HDL level", "setting": "[7]; 6 months", "result": 43.15, "unit": "mg/dL"}, {"measurement": "HDL level", "setting": "[7]; baseline, testosterone group", "result": 36.9, "unit": "mg/dL"}]}
